Reference: patent US20250049803A1, “COMBINATION OF A TASK1/3 CHANNEL BLOCKER WITH A NOREPINEPHRINE REUPTAKE INHIBITOR FOR THE TREATMENT OF SLEEP APNEA” (priority 2021, published 2025)

Experiments:
[1] = tested on: upper airway collapsibility; assay: pig model of obstructive sleep apnea (OSA): collapse of the upper respiratory tract under negative pressure; type: in vivo, German Landrace pigs; parameters: efficacy of the dose on upper airway collapsibility: dose or concentration left out as unconfirmed
Text: The therapeutic potential of the combination of a TASK1/3 channel blocker with a norepinephrine reuptake inhibitor according to the present invention in sleep apnea can be assessed preclinically in a pig model of obstructive sleep apnea (OSA).
German Landrace pigs are used for the model. The pigs are anaesthetized and tracheotomized. Two tracheal cannulas are inserted into the trachea, one into the rostral part and the other into the caudal part of the trachea. Using a connection piece, the rostral cannula is connected to a tube to the negative pressure device and to the distal tracheal cannula. The distal tracheal cannula is additionally connected to a tube with an open end to atmosphere via a connection piece that served for free tracheal breathing, circumventing the upper airway. By appropriate opening and clamping of those tubes breathing can be switched from nasal breathing to breathing through the caudal tracheal cannula, circumventing the upper airway, and the (isolated) upper airway can be connected to the negative pressure device, causing airflow in the inspiratory direction.
At certain points in time, the collapsibility of the upper respiratory tract is tested by having the pig breathe via the caudal cannula and applying negative pressures of −50, −100 and −150 cm water head (cm H2O) to the upper respiratory tract. This causes the upper respiratory tract to collapse, which manifests itself in an interruption of the airflow and a pressure drop in the tube system. This test is conducted prior to the administration of the test substance and at certain intervals after the administration of the test substance. An appropriately effective test substance can prevent this collapse of the respiratory tract in the inspiratory phase.

[2] = plasma concentrations of atomoxetine in the OSA pig model; type: in vivo, pigs; conditions: atomoxetine dose used in the combination (i.v. bolus 20 μg/kg + infusion 12.5 μg/kg/h), FIG. 3
[3] = intranasal 0.3 μg at 0 min, alone, time 0 min (time of administration)
[4] = intranasal 0.3 μg at 0 min, alone, time 10 min
[5] = intranasal 0.3 μg at 0 min, alone, time 30 min
[6] = intranasal 0.3 μg at 0 min, alone, time 60 min
[7] = intranasal 0.3 μg at 0 min, alone, time 90 min
[8] = atomoxetine i.v. bolus 20 μg/kg + infusion 12.5 μg/kg/h for four hours from 0 min, time 0 min (time of administration)
[9] = atomoxetine i.v. bolus 20 μg/kg + infusion 12.5 μg/kg/h for four hours from 0 min, time 10 min
[10] = atomoxetine i.v. bolus 20 μg/kg + infusion 12.5 μg/kg/h for four hours from 0 min, time 30 min
[11] = atomoxetine i.v. bolus 20 μg/kg + infusion 12.5 μg/kg/h for four hours from 0 min, time 60 min
[12] = atomoxetine i.v. bolus 20 μg/kg + infusion 12.5 μg/kg/h for four hours from 0 min, time 90 min (time of nasal application of TASK1/3 channel blocker)

Structure (SMILES): COc1ccc(Cl)c(C(=O)N2C3CCC2CN(Cc2c(-c4ccc(C(C)C)cc4)nc4ncccn24)C3)n1 [(3-Chloro-6-methoxypyridin-2-yl)(3-{[2-(4-isopropylphenyl)imidazo[1,2-a]pyrimidin-3-yl]methyl}-3,8-diazabicyclo[3.2.1]oct-8-yl)methanone]
- efficacy of the dose on upper airway collapsibility ([1]; TASK1/TASK3 channel blocker alone): non effective dose
- Percent pigs without collaps −50 cm H2O, % [1, 3]: 0%
- Percent pigs without collaps −50 cm H2O, % [1, 4]: 33%
- Percent pigs without collaps −50 cm H2O, % [1, 5]: 0%
- Percent pigs without collaps −50 cm H2O, % [1, 6]: 0%
- Percent pigs without collaps −50 cm H2O, % [1, 7]: 0%
- Percent pigs without collaps −100 cm H2O, % [1, 3]: 0%
- Percent pigs without collaps −100 cm H2O, % [1, 4]: 33%
- Percent pigs without collaps −100 cm H2O, % [1, 5]: 0%
- Percent pigs without collaps −100 cm H2O, % [1, 6]: 0%
- Percent pigs without collaps −100 cm H2O, % [1, 7]: 0%
- Percent pigs without collaps −150 cm H2O, % [1, 3]: 0%
- Percent pigs without collaps −150 cm H2O, % [1, 4]: 0%
- Percent pigs without collaps −150 cm H2O, % [1, 5]: 0%
- Percent pigs without collaps −150 cm H2O, % [1, 6]: 0%
- Percent pigs without collaps −150 cm H2O, % [1, 7]: 0%

Structure (SMILES): CNCC[C@@H](Oc1ccccc1C)c1ccccc1 [atomoxetine, Atomoxetine]
- plasma concentrations [2]: about 100 nM
- inhibition of upper airway collapsibility ([1]; atomoxetine alone, i.v. bolus 20 μg/kg + infusion 12.5 μg/kg/h, 30 min after bolus injection and start of infusion): inhibited only at a negative pressure of −50 and −100 cm head
- inhibition of upper airway collapsibility ([1]; atomoxetine alone, i.v. bolus 20 μg/kg + infusion 12.5 μg/kg/h, 60 min after administration): inhibited only at a negative pressure of −50 cm head
- upper airway collapsibility ([1]; atomoxetine alone, i.v. bolus 20 μg/kg + infusion 12.5 μg/kg/h, 90 min after bolus injection and start of infusion): induced at all negative pressures
- time points at which upper airway collapsibility was inhibited at all three negative pressures of −50, −100 and −150 cm head (cm H2O) in all pigs ([1]; atomoxetine alone, i.v. bolus 20 μg/kg followed by infusion 12.5 μg/kg/h for four hours): at no time point
- Percent pigs without collaps −50 cm H2O, % [1, 8]: 0%
- Percent pigs without collaps −50 cm H2O, % [1, 9]: 67%
- Percent pigs without collaps −50 cm H2O, % [1, 10]: 100%
- Percent pigs without collaps −50 cm H2O, % [1, 11]: 100%
- Percent pigs without collaps −50 cm H2O, % [1, 12]: 0%
- Percent pigs without collaps −100 cm H2O, % [1, 8]: 0%
- Percent pigs without collaps −100 cm H2O, % [1, 9]: 0%
- Percent pigs without collaps −100 cm H2O, % [1, 10]: 100%
- Percent pigs without collaps −100 cm H2O, % [1, 11]: 0%
- Percent pigs without collaps −100 cm H2O, % [1, 12]: 0%
- Percent pigs without collaps −150 cm H2O, % [1, 8]: 0%
- Percent pigs without collaps −150 cm H2O, % [1, 9]: 0%
- Percent pigs without collaps −150 cm H2O, % [1, 10]: 0%
- Percent pigs without collaps −150 cm H2O, % [1, 11]: 0%
- Percent pigs without collaps −150 cm H2O, % [1, 12]: 0%
